Measured values reported in publication PMC6493465 (Oncotarget, 2019).

What was measured:
MV4-11 cells [1] = experiment: Antitumor effects in mice xenografted with MV4-11 cells; format: in vivo, mouse; settings: MV4-11 xenograft; for Regression of Tumor / Inhibition of Tumor Growth: Day 21
Description: Four or five-week-old male nude mice (CanN.Cg-Foxn1nu/Crl/Crlj[nu/nu]; Charles River Laboratories Japan, Inc., Kanagawa, Japan) were maintained under specific pathogen-free conditions and received a standard diet and water supply throughout the study. All animal experimental procedures were performed in accordance with the Animal Ethics Committee of Astellas Pharma, Inc. For in vivo experiments, suspensions of MV4-11 and MOLM-13 cells in PBS at a concentration of 1 × 10^8 cells/mL were mixed with an equivalent volume of Matrigel® Basement Membrane Matrix, resulting in a final cell concentration of 5 × 10^7 cells/mL. The cells were subcutaneously injected into the flanks of mice at a concentration of 5 × 10^6 cells/0.1 mL/mouse. After tumor establishment, mice were divided into groups with similar mean tumor volume across groups.
Dosing volumes were 10 mL/kg for oral and intraperitoneal (IP) administration, and 5 or 10 mL/kg for intravenous (IV) administration. Treatment was administered once daily on designated days. The first day of treatment was designated as Day 0 and observation continued until Day 20 or 21 for mice xenografted with MV4-11 cells and Day 16 for mice xenografted with MOLM-13 cells. In mice xenografted with MV4-11 cells for experiments involving triple combination treatment, the control group received oral administration of vehicle (0.5% methylcellulose, Days 0–20), IP administration of vehicle (saline, Days 0–4), and IV administration of vehicle (saline, Days 0–2).
The AraC/DNR group received oral vehicle (0.5% methylcellulose, Days 0–20), IP AraC (50 mg/kg/day, Days 0–4), and IV DNR (2 mg/kg/day, Days 0–2). The AraC/IDR group received vehicle (Days 0–20), IP AraC (50 mg/kg/day, Days 0–4), and IV IDR (0.5 mg/kg/day, Days 0–2). […] For experiments involving Aza, the control group received oral vehicle (0.5% methylcellulose, Days 0–20) and IV vehicle (saline, Days 0–4). The Aza group received oral vehicle (0.5% methylcellulose, Days 0–20) and IV Aza (3 mg/kg/day, Days 0–4). […] For mice that received chemotherapy only, administration schedules for each agent were the same as those described in the triple combination groups.
Mice with established tumors were selected and divided into groups on Day −1 or Day 0, so that the mean tumor volumes were similar across groups. Body weights and tumor volumes assessed on Day −1 were designated as Day 0 values. Body weight and tumor diameter were measured for each experimental group; antitumor activity was expressed as the percent inhibition of tumor growth and the percent of tumor regression (further details are outlined in the Supplementary Materials). […] Complete regression was defined as no palpable or observable tumor. […]
Tumor evaluation 100 × (1 – [mean tumor volume of each group on the last day of observation] / [mean tumor volume of each
Body weight and tumor diameter were measured group on Day 0]) in xenografted nude mice xenografted with MV4-11 cells on the indicated days for each experimental group: 1. Treatments for pharmacokinetic assays […]
and 21. Body weight and tumor assessments obtained on with MV4-11 cells received one of the following Day −1 were designated as Day 0 (baseline) measurements. combination treatments: 1.
Tumor diameter was measured using a caliper and tumor 0.5% methylcellulose); 2. Oral methylcellulose (0.5%) in volume was determined by calculating the volume of an combination with IV IDR (0.5 mg/kg) and IP AraC (50 ellipsoid (ie, Length × Width2 × 0.5). The percent inhibition mg/kg); 3. […]
of tumor growth was calculated using the formula: kg) and IP AraC (50 mg/kg). For combination PK assays […]
on the last day of observation) – (tumor volume of each with MV4-11 received one of the following: […]
of each mouse on the last day of observation) – (tumor methylcellulose (0.5%) plus IV Aza (3 mg/kg); 3. Oral […]
The percent tumor regression was calculated using […]

[2] = test system: MCL-1, BCL2L10, survivin and cPARP in MV4-11 cells; experiment: Western blot analysis of anti-apoptotic protein expression, MV4-11; format: cell-based, human; settings: MV4-11, 24-hour treatment; gilteritinib 10 nM, AraC 1000 nM, DNR 6 nM, IDR 1 nM and 2 nM, Aza 1000 nM
Description: Cell lysates were prepared in radioimmunoprecipitation assay buffer (Thermo Fisher Scientific Inc., Rockford, IL) supplemented with phosphatase (Thermo Fisher Scientific Inc.) and protease inhibitors (Merck, Billerica, MA), electrophoresed on 4%–15% gels, and subsequently transferred to polyvinylidene difluoride membranes. The membranes were blocked using Blocking One (Nacalai Tesque Inc., Kyoto, Japan) for 1 hour and then incubated overnight with primary antibodies to MCL-1, BCL210, cPARP (all from Cell Signaling Technology, Danvers, MA, USA), survivin (R&D Systems, Inc., Minneapolis, MN), and α-actin (MilliporeSigma, Burlington, MA). The membranes were washed with TBS Tween-20 (TBS-T) buffer and incubated with appropriate horseradish peroxidase-linked secondary antibodies (Cell Signaling Technology Japan K.K.) for 1 hour at room temperature. After washing the membranes in TBS-T buffer, enhanced chemiluminescence Western Blotting Detection Reagent ECL-prime (GE Healthcare, Fairfield, CT) was applied. Signals were detected with a charge-coupled device camera (ImageQuant LAS4000; GE Healthcare); signal intensity was quantified using ImageQuant™ TL software (GE Healthcare).

MOLM-13 cells = experiment: Annexin-V staining (apoptosis), MOLM-13; format: cell-based, human; settings: 48 hours; for percentage of annexin V-positive cells: control 4.1%
Description: MV4-11 cells were seeded in 12-well plates at a concentration of 2 × 10^5 cells/well and cultured overnight. […] MOLM-13 cells were seeded in 12-well plates at a concentration of 1 × 10^5 cells/well and cultured overnight.
Cells were harvested and incubated with Guava® Nexin Reagent (Merck Millipore Corporation, Billerica, MA). Annexin-V-positive cells were assessed using a Guava® PCA microcytometer (Merck Millipore Corporation); the percentage of annexin-V-positive cells (2000 cells per sample) was analyzed using CytoSoft™ software (Merck Millipore Corporation). Mean percentages of annexin-V-positive cells were derived from three independent experiments.

MV4-11 cells [3] = experiment: Cell cycle analysis; format: cell-based, human; settings: 24 hours, control 59.8%
Description: MV4-11 cells were seeded in 12-well plates (AGC Techno Glass Co. Ltd., Shizuoka, Japan) at a concentration of 2 × 10^5 cells/well and cultured overnight.
The cells were subsequently harvested and fixed in ice-cold 70% ethanol and maintained at 4°C. Following fixation, the cells were washed with phosphate-buffered saline (PBS) and were resuspended in Guava® Cell Cycle Reagent (Merck Millipore Corporation, Darmstadt, Germany). Cell cycle distribution was measured using a Guava® PCA microcytometer (Merck Millipore Corporation), and was analyzed in 5000 cells per sample using CytoSoft™ software (Merck Millipore Corporation). The mean percentages of cells in sub-G1, G1, S, and G2/M phases were derived from four independent assays.

[4] = Aza experiment: oral gilteritinib 3 mg/kg/day Days 0-20, IV Aza 3 mg/kg/day Days 0-4

Row | Structure (SMILES) | body weight on Day 21 between control and treatment groups (MV4-11 cells [1]) | Regression of Tumor (MV4-11 cells [1]; Aza experiment) [%] | Inhibition of Tumor Growth (MV4-11 cells [1]; [4]) [%] | expression of MCL-1, BCL2L10, and survivin [2] | mean percentage of annexin V-positive cells (MOLM-13 cells; single agent: IDR 3 nM, AraC 100 nM or Aza 1000 nM) [%] | Regression of Tumor (MV4-11 cells [1]; AraC/DNR experiment) [%] | Inhibition of Tumor Growth (MV4-11 cells [1]; AraC/DNR experiment: oral gilteritinib 3 mg/kg/day Days 0-20, IP AraC 50 mg/kg/day Days 0-4, IV DNR 2 mg/kg/day Days 0-2) [%] | Regression of Tumor (MV4-11 cells [1]; AraC/IDR experiment) [%] | Inhibition of Tumor Growth (MV4-11 cells [1]; AraC/IDR experiment: oral gilteritinib 3 mg/kg/day Days 0-20, IP AraC 50 mg/kg/day Days 0-4, IV IDR 0.5 mg/kg/day Days 0-2) [%] | mean (±SEM) tumor weight on Day 21 (MV4-11 cells [1]; AraC/DNR experiment, control 1.234±0.150 g) [g] | mean tumor weight on Day 21 (MV4-11 cells [1]; AraC/IDR experiment, control 1.64±0.12 g) [g] | mean proportion of MV4-11 cells in G1 phase (MV4-11 cells [3]; gilteritinib 3 nM) [%] | mean proportion of MV4-11 cells in G1 phase (MV4-11 cells [3]; gilteritinib 10 nM) [%] | percentage of annexin V-positive cells (MOLM-13 cells; gilteritinib alone 30 nM) [%] | percentage of annexin V-positive cells (MOLM-13 cells; gilteritinib alone 100 nM) [%]
1 | Nc1ncn([C@@H]2O[C@H](CO)[C@@H](O)[C@H]2O)c(=O)n1 [Aza, Azacitidine] | No significant differences | 0 | 5 | no change | 21.9 |  |  |  |  |  |  |  |  |  | 
2 | CCc1nc(C(N)=O)c(Nc2ccc(N3CCC(N4CCN(C)CC4)CC3)c(OC)c2)nc1NC1CCOCC1 [Gilteritinib] | No significant differences | 0 | 71 | inhibited the expression |  | 0 | 78 | 0 | 85 | 0.441 ± 0.076 | 0.53 ± 0.09 | 69.0 | 70.7 | 32.0 | 52.4
